Data published in patent US8314150B2, “Kinase protein binding inhibitors” (priority 2008, dated 2012).

Assays:
paxillin phosphorylation = test: Western blotting p-paxillin, Panc-1 cells; type: cell-based, human; conditions: 24 hours
Method: (§1) Cell Viability Assay—The Cells were treated with peptides for 24 hours at different peptide concentrations. The 3-(4,5-dimethylthiazol-2-yl)-5-(3-carboxymethoxyphenyl)-2-(4-sulfophenyl)-2H-tetrazolium compound from Promega Viability kit (Madison, Ill.) was added, and the cells were incubated at 37° C. for 1-2 hours. The optical density on 96-plate was analyzed with a microplate reader at 490 nm to determine cell viability. In addition, cells were stained with trypan blue after 24 hours of treatment with Y15 and the percent of cells that stained positive were determined with a hemacytometer. […] Then 2% SDS was added to the dried plated and OD at 590 nm was measured for detecting cell adhesion. […] Protein concentrations were determined using a Bio-Rad Kit. The boiled samples were loaded on Ready SDS-10% PAGE gels (Bio Rad, Inc) and used for Western blot analysis with the protein-specific antibody. […] Detachment Assay—Cells were plated with and without inhibitors for 24 hours, and detached and attached cells were counted in a hemocytometer. We calculated the percent of detachment by dividing the number of detached cells by the total number of cells. The percent of detached cells was calculated in three independent experiments. […] For each experiment 300 cells per treatment were counted. […]

[1] = tested on: tumor associated fibroblasts; test: Trypan blue staining, tumor associated fibroblasts; type: cell-based; conditions: increasing doses, 24 hours
Method: as §1

BT474 cells [2] = test: Detachment assay, BT474; type: cell-based; conditions: 24 hours
Method: Cell Viability Assay—The Cells were treated with peptides for 24 hours at different peptide concentrations. The 3-(4,5-dimethylthiazol-2-yl)-5-(3-carboxymethoxyphenyl)-2-(4-sulfophenyl)-2H-tetrazolium compound from Promega Viability kit (Madison, Ill.) was added, and the cells were incubated at 37° C. for 1-2 hours. The optical density on 96-plate was analyzed with a microplate reader at 490 nm to determine cell viability. In addition, cells were stained with trypan blue after 24 hours of treatment with Y15 and the percent of cells that stained positive were determined with a hemacytometer. Cell adhesion assay—The poly-L-Lysine or Collagen (5 μg/ml) coated 96-well plates were blocked with the blocking buffer (medium with 0.5% BSA) for 1 hour at 37 C. The cells were pre-treated with drugs for 3 hours and plated for adhesion at 4×10^5 cells. Cells were incubated at 37 C for 1 hour, fixed in 3.7% formaldehyde, washed in 0.1% BSA in PBS and stained with crystal violet (5 mg/ml in 2% ethanol) for 10 minutes. Then 2% SDS was added to the dried plated and OD at 590 nm was measured for detecting cell adhesion. Western Blotting—Cells or homogenized tumor samples were washed twice with cold 1×PBS and lysed on ice for 30 minutes in a buffer containing: 50 mM Tris-HCl (pH 7.5), 150 mM NaCl, 1% Triton-X, 0.5% NaDOC, 0.1% SDS, 5 mM EDTA, 50 mM NaF, 1 mM NaVO3, 10% glycerol and protease inhibitors: 10 μg/ml leupeptin, 10 μg/ml PMSF and 1 μg/ml aprotinin. The lysates were cleared by centrifugation at 10,000 rpm for 30 minutes at 4° C. Protein concentrations were determined using a Bio-Rad Kit. The boiled samples were loaded on Ready SDS-10% PAGE gels (Bio Rad, Inc) and used for Western blot analysis with the protein-specific antibody. Immunoblots were developed with chemiluminescence Renaissance reagent (NEN Life Science Products, Inc). Immunoprecipitation. Immunoprecipitation was performed according to the standard protocol. In brief, the pre-cleared lysates with equal amount of protein were incubated with 1 μg of primary antibody and 30 μl A/G agarose beads overnight at 4° C. The precipitates were washed with lysis buffer three times and re-suspended in 2× Laemmli buffer. The boiled samples were used for Western blotting, as described above. Detachment Assay—Cells were plated with and without inhibitors for 24 hours, and detached and attached cells were counted in a hemocytometer. We calculated the percent of detachment by dividing the number of detached cells by the total number of cells. The percent of detached cells was calculated in three independent experiments. Apoptosis Assay. […] The percent of apoptotic cells was calculated as a ratio of apoptotic detached cells divided by the total number of cells in three independent experiments in several fields with the fluorescent microscope. For each experiment 300 cells per treatment were counted. In vitro Kinase Assay—10 μCi of [γ-^32P]-ATP in a kinase buffer (20 mM HEPES, pH 7.4, 5 mM MgCl2, 5 mM MnCl2, 0.1 mM Na3VO4 with 0.1 μg of purified FAK protein were incubated in a kinase buffer with 10 μCi of [γ-^32P]-ATP. The kinase reaction was performed for 5 minutes at room temperature and stopped by addition of 2× Laemmli buffer. Proteins were separated on a Ready SDS-10% PAGE gel, and the phosphorylated enolase was visualized by autoradiography. KinaseProfiler screening—Kinase specificity screening was performed with KinaseProfiler™ Service (Millipore) available on http://www.millipore.com/drugdiscovery/dd3/KinaseProfiler. […]

Panc-1 cells = test: Apoptosis assay (Hoechst staining), Panc-1; type: cell-based, human
Method: Cell Viability Assay—The Cells were treated with peptides for 24 hours at different peptide concentrations. The 3-(4,5-dimethylthiazol-2-yl)-5-(3-carboxymethoxyphenyl)-2-(4-sulfophenyl)-2H-tetrazolium compound from Promega Viability kit (Madison, Ill.) was added, and the cells were incubated at 37° C. for 1-2 hours. The optical density on 96-plate was analyzed with a microplate reader at 490 nm to determine cell viability. In addition, cells were stained with trypan blue after 24 hours of treatment with Y15 and the percent of cells that stained positive were determined with a hemacytometer. Cell adhesion assay—The poly-L-Lysine or Collagen (5 μg/ml) coated 96-well plates were blocked with the blocking buffer (medium with 0.5% BSA) for 1 hour at 37 C. The cells were pre-treated with drugs for 3 hours and plated for adhesion at 4×10^5 cells. Cells were incubated at 37 C for 1 hour, fixed in 3.7% formaldehyde, washed in 0.1% BSA in PBS and stained with crystal violet (5 mg/ml in 2% ethanol) for 10 minutes. Then 2% SDS was added to the dried plated and OD at 590 nm was measured for detecting cell adhesion. […] Protein concentrations were determined using a Bio-Rad Kit. The boiled samples were loaded on Ready SDS-10% PAGE gels (Bio Rad, Inc) and used for Western blot analysis with the protein-specific antibody. […] Detachment Assay—Cells were plated with and without inhibitors for 24 hours, and detached and attached cells were counted in a hemocytometer. We calculated the percent of detachment by dividing the number of detached cells by the total number of cells. The percent of detached cells was calculated in three independent experiments. […] The percent of apoptotic cells was calculated as a ratio of apoptotic detached cells divided by the total number of cells in three independent experiments in several fields with the fluorescent microscope. For each experiment 300 cells per treatment were counted. […]

[3] = tested on: BT474, T47D, MCF-7 breast cancer, HT29 colon cancer, C8161 melanoma, A549 lung cancer cell lines; test: MTT cell viability screen of 36 compounds in 6 cancer cell lines; type: cell-based; conditions: 100 μM, 24 hours, among 36 compounds
Method: as §1

BT474 cells [4] = test: Cell adhesion assay on collagen-coated plates, BT474; type: cell-based
Method: as §1

[5] = tested on: BT474 breast cancer cells; test: MTT cell viability assay, BT474; type: cell-based; conditions: 24 hours
Method: as §1

[6] = tested on: Y118-paxillin phosphorylation; test: Western blotting Y118-paxillin, BT474 cells; type: cell-based; conditions: 100 μM, 24 hours
Method: as §1

[7] = tested on: normal breast epithelial cells (MCF10A); test: Trypan blue staining, normal breast epithelial cells; type: cell-based, human; conditions: doses up to 10 μM
Method: as §1

VEGFR-3 = target: T1, VEGFR-3 (Homo sapiens, UniProt P35916); test: KinaseProfiler screening; type: biochemical; conditions: 1 μM, 10 μM ATP
T1 construct: purchased Millipore KinaseProfiler Service (Upstate Biotechnology, Inc)
Method: (§2) Cell Viability Assay—The Cells were treated with peptides for 24 hours at different peptide concentrations. The 3-(4,5-dimethylthiazol-2-yl)-5-(3-carboxymethoxyphenyl)-2-(4-sulfophenyl)-2H-tetrazolium compound from Promega Viability kit (Madison, Ill.) was added, and the cells were incubated at 37° C. for 1-2 hours. The optical density on 96-plate was analyzed with a microplate reader at 490 nm to determine cell viability. In addition, cells were stained with trypan blue after 24 hours of treatment with Y15 and the percent of cells that stained positive were determined with a hemacytometer. Cell adhesion assay—The poly-L-Lysine or Collagen (5 μg/ml) coated 96-well plates were blocked with the blocking buffer (medium with 0.5% BSA) for 1 hour at 37 C. The cells were pre-treated with drugs for 3 hours and plated for adhesion at 4×10^5 cells. Cells were incubated at 37 C for 1 hour, fixed in 3.7% formaldehyde, washed in 0.1% BSA in PBS and stained with crystal violet (5 mg/ml in 2% ethanol) for 10 minutes. Then 2% SDS was added to the dried plated and OD at 590 nm was measured for detecting cell adhesion. Western Blotting—Cells or homogenized tumor samples were washed twice with cold 1×PBS and lysed on ice for 30 minutes in a buffer containing: 50 mM Tris-HCl (pH 7.5), 150 mM NaCl, 1% Triton-X, 0.5% NaDOC, 0.1% SDS, 5 mM EDTA, 50 mM NaF, 1 mM NaVO3, 10% glycerol and protease inhibitors: 10 μg/ml leupeptin, 10 μg/ml PMSF and 1 μg/ml aprotinin. The lysates were cleared by centrifugation at 10,000 rpm for 30 minutes at 4° C. Protein concentrations were determined using a Bio-Rad Kit. The boiled samples were loaded on Ready SDS-10% PAGE gels (Bio Rad, Inc) and used for Western blot analysis with the protein-specific antibody. Immunoblots were developed with chemiluminescence Renaissance reagent (NEN Life Science Products, Inc). Immunoprecipitation. Immunoprecipitation was performed according to the standard protocol. In brief, the pre-cleared lysates with equal amount of protein were incubated with 1 μg of primary antibody and 30 μl A/G agarose beads overnight at 4° C. The precipitates were washed with lysis buffer three times and re-suspended in 2× Laemmli buffer. The boiled samples were used for Western blotting, as described above. Detachment Assay—Cells were plated with and without inhibitors for 24 hours, and detached and attached cells were counted in a hemocytometer. We calculated the percent of detachment by dividing the number of detached cells by the total number of cells. The percent of detached cells was calculated in three independent experiments. Apoptosis Assay. Detached cells were collected and fixed in 3.7% formaldehyde in 1×PBS solution for the apoptosis assay. Detection of apoptosis was done with Hoechst 33342 staining. The percent of apoptotic cells was calculated as a ratio of apoptotic detached cells divided by the total number of cells in three independent experiments in several fields with the fluorescent microscope. For each experiment 300 cells per treatment were counted. In vitro Kinase Assay—10 μCi of [γ-^32P]-ATP in a kinase buffer (20 mM HEPES, pH 7.4, 5 mM MgCl2, 5 mM MnCl2, 0.1 mM Na3VO4 with 0.1 μg of purified FAK protein were incubated in a kinase buffer with 10 μCi of [γ-^32P]-ATP. The kinase reaction was performed for 5 minutes at room temperature and stopped by addition of 2× Laemmli buffer. Proteins were separated on a Ready SDS-10% PAGE gel, and the phosphorylated enolase was visualized by autoradiography. KinaseProfiler screening—Kinase specificity screening was performed with KinaseProfiler™ Service (Millipore) available on http://www.millipore.com/drugdiscovery/dd3/KinaseProfiler. The screening was performed with 1 μM Y15, 10 μM ATP and kinase substrates on 9 recombinant kinases according to Millipore protocol. Tumor Growth in Nude Mice—Female nude mice, 6 weeks old, were purchased from Harlan Laboratory. […]

c-RAF = target: T2, c-RAF (Homo sapiens, UniProt P04049); test: KinaseProfiler screening; type: biochemical; conditions: 1 μM, 10 μM ATP
T2 construct: purchased Millipore KinaseProfiler Service (Upstate Biotechnology, Inc)
Method: as §2

IGF-1 = target: T3, IGF-1 (Homo sapiens, UniProt P08069); test: KinaseProfiler screening; type: biochemical; conditions: 1 μM, 10 μM ATP
T3 construct: purchased Millipore KinaseProfiler Service (Upstate Biotechnology, Inc)
Method: as §2

Met = target: T4, Met (Homo sapiens, UniProt P08581); test: KinaseProfiler screening; type: biochemical; conditions: 1 μM, 10 μM ATP
T4 construct: purchased Millipore KinaseProfiler Service (Upstate Biotechnology, Inc)
Method: as §2

EGFR = target: T5, EGFR (Homo sapiens, UniProt P00533); test: KinaseProfiler screening; type: biochemical; conditions: 1 μM, 10 μM ATP
T5 construct: purchased Millipore KinaseProfiler Service (Upstate Biotechnology, Inc)
Method: as §2

c-Src = target: T6, c-Src (Homo sapiens, UniProt P12931); test: KinaseProfiler screening; type: biochemical; conditions: 1 μM, 10 μM ATP
T6 construct: purchased Millipore KinaseProfiler Service (Upstate Biotechnology, Inc)
Method: as §2

Pyk2 = target: T7, Pyk2 (Homo sapiens, UniProt Q14289); test: KinaseProfiler screening; type: biochemical; conditions: 1 μM, 10 μM ATP
T7 construct: purchased Millipore KinaseProfiler Service (Upstate Biotechnology, Inc)
Method: as §2

PI3K (p110δ/p85α) = target: T8, PI3K (p110δ/p85α) (Homo sapiens, UniProt O00329); test: KinaseProfiler screening; type: biochemical; conditions: 1 μM, 10 μM ATP
T8 construct: purchased Millipore KinaseProfiler Service (Upstate Biotechnology, Inc)
Method: as §2

PDGFR-α = target: T9, PDGFR-α (Homo sapiens, UniProt P16234); test: KinaseProfiler screening; type: biochemical; conditions: 1 μM, 10 μM ATP
T9 construct: purchased Millipore KinaseProfiler Service (Upstate Biotechnology, Inc)
Method: as §2

Y397-FAK phosphorylation = test: Y397-FAK levels in BT474 tumors (Western blotting, immunohistochemistry); type: in vivo; conditions: 30 mg/kg, vs untreated mice
Method: as §1

normal human fibroblasts = test: Detachment and morphology, normal human fibroblasts; type: cell-based; conditions: doses up to 10 μM
Method: as §1

T7 sequence (Q14289 whole entry): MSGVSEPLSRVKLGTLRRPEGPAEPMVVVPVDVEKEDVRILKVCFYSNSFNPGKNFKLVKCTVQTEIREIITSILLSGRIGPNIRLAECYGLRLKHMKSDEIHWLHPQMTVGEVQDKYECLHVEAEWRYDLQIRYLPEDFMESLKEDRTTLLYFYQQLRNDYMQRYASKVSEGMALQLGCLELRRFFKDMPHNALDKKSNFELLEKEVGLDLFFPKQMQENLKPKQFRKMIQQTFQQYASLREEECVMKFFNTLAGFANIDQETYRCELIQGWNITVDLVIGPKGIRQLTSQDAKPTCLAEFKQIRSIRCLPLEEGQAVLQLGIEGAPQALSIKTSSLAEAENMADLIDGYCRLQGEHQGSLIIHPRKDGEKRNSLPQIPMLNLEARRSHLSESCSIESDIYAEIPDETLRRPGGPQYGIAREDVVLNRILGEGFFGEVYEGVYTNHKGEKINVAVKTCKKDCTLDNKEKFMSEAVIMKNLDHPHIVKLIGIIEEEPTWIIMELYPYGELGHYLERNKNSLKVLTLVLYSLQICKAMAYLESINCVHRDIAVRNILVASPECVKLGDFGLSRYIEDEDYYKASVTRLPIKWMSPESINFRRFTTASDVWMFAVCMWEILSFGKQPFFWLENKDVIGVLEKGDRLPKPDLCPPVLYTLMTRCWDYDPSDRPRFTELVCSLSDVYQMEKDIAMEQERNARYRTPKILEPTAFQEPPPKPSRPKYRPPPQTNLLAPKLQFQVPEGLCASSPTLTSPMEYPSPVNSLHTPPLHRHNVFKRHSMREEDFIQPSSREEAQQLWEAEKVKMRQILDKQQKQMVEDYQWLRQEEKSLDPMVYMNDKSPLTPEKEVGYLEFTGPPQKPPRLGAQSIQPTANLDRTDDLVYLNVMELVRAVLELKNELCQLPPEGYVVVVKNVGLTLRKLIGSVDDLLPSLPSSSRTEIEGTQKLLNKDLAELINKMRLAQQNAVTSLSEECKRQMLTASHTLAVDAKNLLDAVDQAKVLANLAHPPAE
T9 sequence (P16234 24-1089): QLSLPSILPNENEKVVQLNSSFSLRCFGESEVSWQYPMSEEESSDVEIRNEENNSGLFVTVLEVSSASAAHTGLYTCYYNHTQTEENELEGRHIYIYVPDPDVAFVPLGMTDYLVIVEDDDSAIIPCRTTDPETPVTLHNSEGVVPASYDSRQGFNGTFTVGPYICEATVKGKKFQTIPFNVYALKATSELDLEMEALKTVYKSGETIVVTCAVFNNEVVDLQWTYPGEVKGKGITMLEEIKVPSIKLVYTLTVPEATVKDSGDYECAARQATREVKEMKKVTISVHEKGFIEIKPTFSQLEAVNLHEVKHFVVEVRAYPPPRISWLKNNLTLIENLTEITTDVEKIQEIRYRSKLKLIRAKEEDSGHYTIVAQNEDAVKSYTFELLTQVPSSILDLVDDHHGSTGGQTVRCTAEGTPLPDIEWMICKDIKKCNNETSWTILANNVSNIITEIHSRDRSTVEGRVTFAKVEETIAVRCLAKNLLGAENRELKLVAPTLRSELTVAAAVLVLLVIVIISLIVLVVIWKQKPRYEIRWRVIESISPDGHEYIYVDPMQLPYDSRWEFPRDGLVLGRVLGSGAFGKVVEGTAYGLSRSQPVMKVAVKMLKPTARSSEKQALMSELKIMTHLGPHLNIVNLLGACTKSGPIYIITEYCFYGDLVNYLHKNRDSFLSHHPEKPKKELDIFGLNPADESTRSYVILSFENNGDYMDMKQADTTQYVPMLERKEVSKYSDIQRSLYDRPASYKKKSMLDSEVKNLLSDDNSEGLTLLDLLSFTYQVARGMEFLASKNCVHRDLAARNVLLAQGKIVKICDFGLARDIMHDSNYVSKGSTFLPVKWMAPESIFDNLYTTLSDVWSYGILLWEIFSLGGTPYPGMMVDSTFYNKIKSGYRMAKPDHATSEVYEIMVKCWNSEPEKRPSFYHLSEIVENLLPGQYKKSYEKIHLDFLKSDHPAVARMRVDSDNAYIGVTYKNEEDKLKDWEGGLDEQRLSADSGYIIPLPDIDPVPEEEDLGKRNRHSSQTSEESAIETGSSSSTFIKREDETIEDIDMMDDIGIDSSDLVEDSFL
T1 sequence (P35916 25-1363): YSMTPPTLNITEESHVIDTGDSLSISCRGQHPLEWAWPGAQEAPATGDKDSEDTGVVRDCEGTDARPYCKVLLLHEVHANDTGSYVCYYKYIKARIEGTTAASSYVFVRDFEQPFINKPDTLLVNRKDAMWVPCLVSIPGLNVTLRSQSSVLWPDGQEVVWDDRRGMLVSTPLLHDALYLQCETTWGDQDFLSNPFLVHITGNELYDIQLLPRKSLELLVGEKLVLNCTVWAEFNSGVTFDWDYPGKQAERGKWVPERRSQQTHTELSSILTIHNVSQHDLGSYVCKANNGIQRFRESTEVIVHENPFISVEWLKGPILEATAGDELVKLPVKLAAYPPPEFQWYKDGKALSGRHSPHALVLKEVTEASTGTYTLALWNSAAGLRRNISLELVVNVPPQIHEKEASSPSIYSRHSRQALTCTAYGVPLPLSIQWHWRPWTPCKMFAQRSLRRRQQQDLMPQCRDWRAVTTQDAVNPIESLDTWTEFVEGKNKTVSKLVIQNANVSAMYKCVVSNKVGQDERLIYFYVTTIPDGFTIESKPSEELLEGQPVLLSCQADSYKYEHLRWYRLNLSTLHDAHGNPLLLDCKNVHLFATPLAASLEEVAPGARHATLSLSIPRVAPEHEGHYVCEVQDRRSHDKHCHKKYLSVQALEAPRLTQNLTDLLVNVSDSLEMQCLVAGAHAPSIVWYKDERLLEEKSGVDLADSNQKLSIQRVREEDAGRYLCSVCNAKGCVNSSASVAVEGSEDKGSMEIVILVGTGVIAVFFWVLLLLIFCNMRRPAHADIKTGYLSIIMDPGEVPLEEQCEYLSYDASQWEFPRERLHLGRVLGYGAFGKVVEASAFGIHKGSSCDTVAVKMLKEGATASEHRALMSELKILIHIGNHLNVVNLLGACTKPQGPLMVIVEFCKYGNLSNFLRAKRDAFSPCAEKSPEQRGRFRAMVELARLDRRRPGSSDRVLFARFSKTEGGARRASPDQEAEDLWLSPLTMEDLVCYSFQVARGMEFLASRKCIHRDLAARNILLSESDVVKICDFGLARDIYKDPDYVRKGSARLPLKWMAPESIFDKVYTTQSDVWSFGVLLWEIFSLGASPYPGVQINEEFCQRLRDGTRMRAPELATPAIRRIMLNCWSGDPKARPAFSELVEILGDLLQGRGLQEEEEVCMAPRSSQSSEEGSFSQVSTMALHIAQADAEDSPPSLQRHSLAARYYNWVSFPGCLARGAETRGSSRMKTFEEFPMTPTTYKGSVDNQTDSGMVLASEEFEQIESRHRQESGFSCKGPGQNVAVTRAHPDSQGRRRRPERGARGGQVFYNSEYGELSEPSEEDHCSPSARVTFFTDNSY
T2 sequence (P04049 whole entry): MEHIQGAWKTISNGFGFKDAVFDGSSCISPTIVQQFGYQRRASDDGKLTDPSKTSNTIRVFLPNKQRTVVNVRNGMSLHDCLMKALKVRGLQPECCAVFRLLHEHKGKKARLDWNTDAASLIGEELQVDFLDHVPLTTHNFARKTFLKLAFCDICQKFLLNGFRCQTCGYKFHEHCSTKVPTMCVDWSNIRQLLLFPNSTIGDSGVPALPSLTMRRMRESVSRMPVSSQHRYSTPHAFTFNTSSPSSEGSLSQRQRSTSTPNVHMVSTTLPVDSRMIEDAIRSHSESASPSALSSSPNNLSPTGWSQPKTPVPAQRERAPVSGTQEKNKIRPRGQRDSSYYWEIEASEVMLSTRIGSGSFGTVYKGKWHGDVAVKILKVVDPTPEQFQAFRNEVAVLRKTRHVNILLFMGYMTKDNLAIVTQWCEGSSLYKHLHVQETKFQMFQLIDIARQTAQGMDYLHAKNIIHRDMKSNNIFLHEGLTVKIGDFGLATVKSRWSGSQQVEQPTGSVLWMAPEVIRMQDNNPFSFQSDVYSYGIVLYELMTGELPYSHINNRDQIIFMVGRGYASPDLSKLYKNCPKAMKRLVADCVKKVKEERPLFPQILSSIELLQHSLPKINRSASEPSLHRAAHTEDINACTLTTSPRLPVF
T6 sequence (P12931 whole entry): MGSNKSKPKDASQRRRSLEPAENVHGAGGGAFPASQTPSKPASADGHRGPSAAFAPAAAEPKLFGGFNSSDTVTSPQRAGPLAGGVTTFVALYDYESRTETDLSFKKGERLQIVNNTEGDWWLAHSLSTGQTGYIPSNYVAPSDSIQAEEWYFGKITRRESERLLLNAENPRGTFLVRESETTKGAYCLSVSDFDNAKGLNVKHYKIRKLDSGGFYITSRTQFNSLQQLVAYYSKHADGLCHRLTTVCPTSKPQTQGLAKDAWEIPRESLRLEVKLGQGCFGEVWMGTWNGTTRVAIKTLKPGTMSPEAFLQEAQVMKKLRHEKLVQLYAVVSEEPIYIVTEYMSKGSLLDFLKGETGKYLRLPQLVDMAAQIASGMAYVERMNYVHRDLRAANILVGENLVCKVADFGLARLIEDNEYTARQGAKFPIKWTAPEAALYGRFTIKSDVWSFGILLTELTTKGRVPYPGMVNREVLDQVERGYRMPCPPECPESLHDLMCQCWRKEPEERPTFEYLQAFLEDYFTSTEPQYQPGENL

Cl.Cl.Cl.Cl.Nc1cc(N)c(N)cc1N [Y15, 1,2,4,5-benzenetetraamine tetrahydrochloride]
phosphorylation of FAK downstream substrate paxillin (paxillin phosphorylation): blocked | cell viability (trypan blue) [1]: no significant decrease in viability | detachment (BT474 cells [2]; 10 μM): 8% | detachment (BT474 cells [2]; 50 μM): 38% | detachment (BT474 cells [2]; 100 μM): 58% | apoptotic nuclei (Hoechst) (Panc-1 cells; 50 μM): no detection of apoptotic nuclei | increase in apoptosis (Panc-1 cells; 50-100 μM, not significant): less than 10% | cell viability [3]: maximally decreased cell viability | cell adhesion (BT474 cells [4]; 100 μM): significantly inhibited cell adhesion as TAE-226 | dose from which cell adhesion was significantly decreased (BT474 cells [4]; collagen-coated plates): 50 µM | dose at which viability started to decrease [5]: 10 µM | doses at which viability was significantly blocked [5]: 50 to 100 µM | phosphorylation of Y118-paxillin [6]: inhibited | cell viability (trypan blue) [7]: no decrease in cell viability | kinase activity (VEGFR-3): did not significantly decrease kinase activity | kinase activity (c-RAF): did not significantly decrease kinase activity | kinase activity (IGF-1): did not significantly decrease kinase activity | kinase activity (Met): did not significantly decrease kinase activity | kinase activity (EGFR): did not significantly decrease kinase activity | kinase activity (c-Src): did not significantly decrease kinase activity | kinase activity (Pyk2): did not significantly decrease kinase activity | kinase activity (PI3K (p110δ/p85α)): did not significantly decrease kinase activity | kinase activity (PDGFR-α): did not significantly decrease kinase activity | Y397-FAK phosphorylation in tumors (Y397-FAK phosphorylation): less Y397-FAK phosphorylation | total FAK levels in tumors (Y397-FAK phosphorylation): the same | morphology and cell detachment (normal human fibroblasts): did not cause a significant change in morphology or increase in cell detachment
